The source of these data is US20240352022A1, “GROUP OF IMB-C5 SERIES COMPOUNDS HAVING ANTI-CORONAVIRUS ACTIVITY AND APPLICATION THEREOF” (priority 2021, published 2024).

The experiment deals with SARS-COV-2 Beta variant. In words: microbe, parasite or virus in culture. The experiment is classed as cell-based, Human coronavirus SARS-COV-2 Beta variant. The note with it: for IC50: Severe acute respiratory syndrome coronavirus 2, Vero C1008.

On to `COc1cccc(Cn2c(NCCO)nc3c2c(=O)n(C)c(=O)n3C)c1` [IMB-C5], for which the “inhibitory activity against SARS-COV-2 (in words)” value is “had an inhibitory activity against the SARS-COV-2 Beta variant” and the midpoint of inhibition, the IC50, lay at 34.8 µM. As to `CCC(CC)COC(=O)[C@H](C)N[P@](=O)(OC[C@H]1O[C@@](C#N)(c2ccc3c(N)ncnn23)[C@H](O)[C@@H]1O)Oc1ccccc1` [Remdesivir, reference compound], it took 0.73 µM to reach half-maximal inhibition (IC50).
